pEC50, pIC50: −log10 of the molar value.
Tests used:
[1] = Inhibition of human adenosine transporter assessed as reduction in [3H]-adenosine uptake
[2] = target: T1, Muscarinic acetylcholine receptor M4 (Homo sapiens, UniProt P08173); assay: Positive allosteric modulation of human M4 receptor expressed in CHO cells co-expressing Gqui5 by calcium mobilization assay; format: functional, cell-based; conditions: read-out: EC50
T1 sequence (P08173 whole entry): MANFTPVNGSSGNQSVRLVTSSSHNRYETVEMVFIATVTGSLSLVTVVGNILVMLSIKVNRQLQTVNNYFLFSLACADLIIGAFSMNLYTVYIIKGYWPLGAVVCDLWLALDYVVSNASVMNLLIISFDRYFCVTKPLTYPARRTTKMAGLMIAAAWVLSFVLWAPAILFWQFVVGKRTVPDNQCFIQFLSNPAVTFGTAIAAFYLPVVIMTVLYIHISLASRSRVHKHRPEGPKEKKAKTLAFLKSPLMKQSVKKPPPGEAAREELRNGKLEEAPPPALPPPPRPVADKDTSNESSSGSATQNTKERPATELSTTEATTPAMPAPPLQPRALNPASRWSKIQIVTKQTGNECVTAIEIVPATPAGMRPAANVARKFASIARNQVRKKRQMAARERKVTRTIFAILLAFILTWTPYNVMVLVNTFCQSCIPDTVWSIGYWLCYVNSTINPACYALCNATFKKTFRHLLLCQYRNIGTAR

[3] = Binding affinity to rat brain GABA receptor by radio-ligand binding assay
[4] = Ratio of unbound concentration in brain to plasma in Sprague-Dawley rat at 0.20 to 0.25 mg/kg, iv administered through cassette dosing after 0.25 hrs; format: ADME, organism-based
[5] = Ratio of total drug level in brain to plasma in Sprague-Dawley rat at 0.20 to 0.25 mg/kg, iv administered through cassette dosing after 0.25 hrs; format: ADME, organism-based
[6] = target: Growth hormone secretagogue receptor type 1 (Homo sapiens, UniProt Q92847); assay: Inhibition of ghrelin receptor (unknown origin) by radioligand binding assay
[7] = Plasma clearance in Sprague-Dawley rat at 1 mg/kg, iv; format: ADME, organism-based
[8] = target: Voltage-dependent L-type calcium channel subunit alpha-1C (Homo sapiens, UniProt Q13936); assay: Binding affinity to human Cav1.2 by radio-ligand binding assay
Voltage-dependent L-type calcium channel subunit alpha-1C, sequence (Q13936 whole entry): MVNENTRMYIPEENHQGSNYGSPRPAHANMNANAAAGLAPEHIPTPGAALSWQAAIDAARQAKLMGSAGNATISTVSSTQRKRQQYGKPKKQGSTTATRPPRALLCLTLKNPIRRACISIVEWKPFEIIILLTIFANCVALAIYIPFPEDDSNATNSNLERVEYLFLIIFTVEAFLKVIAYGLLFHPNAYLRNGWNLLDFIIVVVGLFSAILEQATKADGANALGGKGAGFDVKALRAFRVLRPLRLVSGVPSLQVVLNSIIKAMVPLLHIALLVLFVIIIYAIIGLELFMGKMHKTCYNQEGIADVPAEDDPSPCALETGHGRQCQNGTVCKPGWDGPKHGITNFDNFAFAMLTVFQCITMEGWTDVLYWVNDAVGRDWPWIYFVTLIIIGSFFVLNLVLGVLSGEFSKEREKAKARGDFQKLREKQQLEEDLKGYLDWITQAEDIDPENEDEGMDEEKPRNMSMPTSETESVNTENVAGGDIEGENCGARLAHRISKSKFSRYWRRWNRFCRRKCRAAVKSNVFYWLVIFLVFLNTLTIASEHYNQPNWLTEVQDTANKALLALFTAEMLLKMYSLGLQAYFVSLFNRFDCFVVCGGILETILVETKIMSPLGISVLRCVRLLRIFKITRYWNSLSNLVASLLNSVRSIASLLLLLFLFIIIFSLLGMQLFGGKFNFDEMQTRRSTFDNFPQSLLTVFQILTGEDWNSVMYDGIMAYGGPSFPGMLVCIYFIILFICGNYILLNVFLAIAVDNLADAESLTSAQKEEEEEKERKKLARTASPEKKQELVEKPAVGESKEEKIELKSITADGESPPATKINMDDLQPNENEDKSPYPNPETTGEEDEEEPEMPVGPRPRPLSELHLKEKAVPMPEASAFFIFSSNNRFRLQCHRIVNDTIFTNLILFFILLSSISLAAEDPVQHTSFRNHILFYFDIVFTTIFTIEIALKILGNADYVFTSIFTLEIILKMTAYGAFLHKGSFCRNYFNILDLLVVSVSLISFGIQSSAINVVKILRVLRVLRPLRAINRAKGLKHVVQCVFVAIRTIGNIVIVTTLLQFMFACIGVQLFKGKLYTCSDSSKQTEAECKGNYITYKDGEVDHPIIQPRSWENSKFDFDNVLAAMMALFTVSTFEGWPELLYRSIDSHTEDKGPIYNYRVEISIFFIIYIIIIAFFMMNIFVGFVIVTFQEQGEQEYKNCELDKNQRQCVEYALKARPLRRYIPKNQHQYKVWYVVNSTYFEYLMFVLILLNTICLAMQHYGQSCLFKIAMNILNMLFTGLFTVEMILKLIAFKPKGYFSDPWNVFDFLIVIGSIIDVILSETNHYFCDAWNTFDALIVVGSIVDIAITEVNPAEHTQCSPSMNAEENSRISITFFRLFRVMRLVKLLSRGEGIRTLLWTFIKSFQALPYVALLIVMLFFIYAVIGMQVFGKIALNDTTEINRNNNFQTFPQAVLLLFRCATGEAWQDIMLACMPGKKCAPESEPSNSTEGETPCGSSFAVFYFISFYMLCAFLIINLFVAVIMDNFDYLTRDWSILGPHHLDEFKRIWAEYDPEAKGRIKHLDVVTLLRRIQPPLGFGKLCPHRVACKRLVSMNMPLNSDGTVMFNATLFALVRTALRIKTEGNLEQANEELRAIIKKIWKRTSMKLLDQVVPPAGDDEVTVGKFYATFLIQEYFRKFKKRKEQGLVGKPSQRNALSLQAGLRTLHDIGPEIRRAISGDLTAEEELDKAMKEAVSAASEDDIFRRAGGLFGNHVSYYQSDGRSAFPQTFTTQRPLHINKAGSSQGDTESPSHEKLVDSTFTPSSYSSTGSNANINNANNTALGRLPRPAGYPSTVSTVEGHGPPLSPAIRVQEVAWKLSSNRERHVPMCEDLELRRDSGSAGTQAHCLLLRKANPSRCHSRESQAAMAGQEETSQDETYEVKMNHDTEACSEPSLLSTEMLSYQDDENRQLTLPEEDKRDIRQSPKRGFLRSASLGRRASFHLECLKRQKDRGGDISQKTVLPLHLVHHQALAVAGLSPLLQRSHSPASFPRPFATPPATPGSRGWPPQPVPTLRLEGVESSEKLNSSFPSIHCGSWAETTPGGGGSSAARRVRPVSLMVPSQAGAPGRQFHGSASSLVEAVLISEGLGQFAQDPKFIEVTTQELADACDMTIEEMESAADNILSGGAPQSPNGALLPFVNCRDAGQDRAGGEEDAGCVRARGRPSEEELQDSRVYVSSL

Growth hormone secretagogue receptor type 1, sequence (Q92847 whole entry): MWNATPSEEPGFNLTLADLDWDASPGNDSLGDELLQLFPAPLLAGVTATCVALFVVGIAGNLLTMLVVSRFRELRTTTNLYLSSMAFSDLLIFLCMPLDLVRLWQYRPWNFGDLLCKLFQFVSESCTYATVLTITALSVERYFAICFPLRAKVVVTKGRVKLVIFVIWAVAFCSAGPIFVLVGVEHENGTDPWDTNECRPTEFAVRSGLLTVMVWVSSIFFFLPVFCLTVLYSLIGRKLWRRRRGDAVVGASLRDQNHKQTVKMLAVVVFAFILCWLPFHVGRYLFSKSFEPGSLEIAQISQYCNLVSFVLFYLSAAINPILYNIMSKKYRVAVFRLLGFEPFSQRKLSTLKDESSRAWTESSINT

Cc1nnc2sc(C(=O)NCc3ccc(S(=O)(=O)C(F)(F)F)cc3)c(N)c2c1C
pIC50 [1]: 6.62

Cc1nnc2sc(C(=O)NCc3ccc(S(F)(F)(F)(F)F)cc3)c(N)c2c1C
pEC50 [2]: 6.26
pIC50 [3]: 5.68
K(p,uu,brain) [4]: 1
Kp [5]: 1.4
pIC50 [6]: 5.19
clearance [7]: 12 mL/min/kg

Cc1nnc2sc(C(=O)NCc3ccc(S(=O)(=O)C(F)F)cc3)c(N)c2c1C
pIC50 [8]: 5.24
pEC50 [2]: 6.60
K(p,uu,brain) [4]: 0.1
Kp [5]: 0.11
clearance [7]: 16 mL/min/kg

Reference: ChEMBL document CHEMBL3872258, “Challenges in the development of an M4 PAM in vivo tool compound: The discovery of VU0467154 and unexpected DMPK profiles of close analogs” (Bioorg Med Chem Lett, 2017)
